What all share (type): cell-based, hepatitis C virus
The test system of test [1] is HCVcc infected Huh7 cells. Nature of the test: HCV replication, GRIM19 overexpression combined with DGAT-1 inhibitor. The following applies: 40 μM compound of Formula 1 simultaneously with GRIM19 overexpression in HCVcc infected Huh7 cells (FIG. 9).
The test system of the next test is HCV. Nature of the test: HCV RNA copies, GRIM19 overexpression combined with metformin. The settings on record: transfection with pcDNA3_GRIM19 plus metformin (FIG. 8). The text has this:
In this regard, a change in HCV RNA copies was examined in the case of administration of metformin (Sigama Aldrich, Cat. D150959), an activator of AMP-activated protein kinase (AMPK) inhibiting the activity of ACC, in combination.

In test [2] the test system is HCVcc infected Huh7 cells. Nature of the test: HCV RNA copies, GRIM19 overexpression and/or sofosbuvir in in vitro HCV infection model. The following applies: transfection with pcDNA3_GRIM19 plus sofosbuvir (FIG. 10). The procedure: HCVcc infected Huh7 cells were transfected with pcDNA3_GRIM19 using FUGENE HD, as in Example 3 above, the cells were treated with sofosbuvir (PharmaBLOCK R&D Co. Ltd.) (Formula 2):
[drawing 6] a compound inhibiting RNA-dependent RNA polymerase activity of HCV, or the cells were transfected with pcDNA3_GRIM19 and treated with sofosbuvir. Then, a change in HCV RNA copies was evaluated.

Test [3] deals with Huh7 cells infected with HCVcc. Kind of test: HCV RNA level after direct treatment with cell permeable GRIM19 domain peptides. The settings on record: 10 μM peptide for 48 hours (FIG. 12). On the procedure: In order to confirm whether an anti-HCV effect is shown when penetrating each domain itself of GRIM19 protein into cells, the effect was evaluated in in vitro HCV infection model by synthesizing peptides in which cell permeable peptide sequences (CP) bind to N-terminal of each domain of GRIM19 of Example 8. The sequences of each domain of GRIM19 comprising the synthesized cell permeable peptide sequences (CP) were analyzed in Table 4 below.
After treating Huh7 cells infected with HCVcc through in vitro HCV infection model of Example 2 with 10 μM of CP-GRIM19-D1, CP-GRIM19-D2, and CP-GRIM19-D3 for 48 hours, the level of RNA in HCV was examined.

Test [4] relates to in vitro HCV infection model (HCVcc infected Huh7 cells). Kind of test: HCV RNA level after transfection with expression vectors for GRIM19 domains in in vitro HCV infection model. The settings on record: overexpression of the domain by transfection with expression vector (FIG. 11b). On the procedure:
An expression vector which can express the […], GRIM19-D2 (aa 37-72), GRIM19-D3 (aa 73-101), and GRIM19-D4 (aa 102-144) above was prepared, and the effect of each domain was evaluated in in vitro HCV infection model in Example 2.
In order to prepare the expression vector, the gene for each domain of GRIM19 was obtained through PCR with template of the vector expressing pcDNA3_GRIM19, and each domain was subcloned into pCMV-3Tag-3A vector (Agilent Technologies, Inc.) using restriction sites of restriction enzymes EcoRI and SalI. For GRIM19-D2, GRIM19-D3, and GRIM19-D4 to be expressed in the vector, a start codon was added prior to 5′ of the actually corresponding gene sequence of GRIM19. Accordingly, for each protein fragment, methionine was added prior to the N terminus of the actually corresponding amino acid sequence of GRIM19.

No end group written: not given here.

Consider `O=C(Nc1ccccc1)Nc1ccc(-c2ccc(C(=O)[C@@H]3CCC[C@H]3C(=O)O)cc2)cc1` [A922500], for which, in test [1], the “effect of the combination on HCV replication” value was “synergistic effect of inhibiting HCV replication”.

As to `CN(C)C(=N)N=C(N)N` [metformin], in the test with HCV, the “effect of the combination on HCV” value is reported as “synergistic effect of inhibiting HCV” and the “increase in HCV RNA compared with treatment with metformin alone” value is given as “considerably lower”.

For `CC(C)OC(=O)[C@H](C)N[P@](=O)(OC[C@H]1O[C@@H](n2ccc(=O)[nH]c2=O)[C@](C)(F)[C@@H]1O)Oc1ccccc1` [sofosbuvir], in test [2], the “effect of the combination on HCV” value is recorded as “synergistic effect of inhibiting HCV” and the “lower increase in HCV RNA than treatment with sofosbuvir alone” value is ≥ 45%.

For “CP-GRIM19-D1: synthesized peptide, cell permeable peptide sequence (CP) at N-terminal of GRIM19 domain 1, SEQ ID NO: 14 (RRRRRRRRRMAASKVKQDMPPPGGYGPIDYKRNLPRRGLSGYSML; CP-GRIM19-D1)”, the “level of HCV RNA” value in test [3] was “significantly decreased”.

Take “CP-GRIM19-D2: synthesized peptide, cell permeable peptide sequence (CP) at N-terminal of GRIM19 domain 2, SEQ ID NO: 15 (RRRRRRRRRAIGIGTLIYGHWSIMKWNRERRRLQIEDFEARIALL; CP-GRIM19-D2)”: in test [3], the “level of HCV RNA” value is listed as “significantly decreased”.

On to “CP-GRIM19-D3: synthesized peptide, cell permeable peptide sequence (CP) at N-terminal of GRIM19 domain 3, SEQ ID NO: 16 (RRRRRRRRRPLLQAETDRRTLQMLRENLEEEAIIMKDV; CP-GRIM19-D3)”, for which the “level of HCV RNA” value in test [3] is “significantly decreased”.

For the compound “GRIM19-D1: GRIM19 protein fragment aa 1-36 (SEQ ID NO: 6), expressed from pCMV-3Tag-3A vector (MAASKVKQDMPPPGGYGPIDYKRNLPRRGLSGYSML; also: 3Tag vector tags (pCMV-3Tag-3A))”, the “level of HCV RNA” value in test [4] is reported as “significantly decreased”.

In the case of “GRIM19-D2: GRIM19 protein fragment aa 37-72 (SEQ ID NO: 8), expressed from pCMV-3Tag-3A vector (MAIGIGTLIYGHWSIMKWNRERRRLQIEDFEARIALL; also: 3Tag vector tags, position not given here)”, in test [4], the “level of HCV RNA” value is given as “significantly decreased”.

Take “GRIM19-D3: GRIM19 protein fragment aa 73-101 (SEQ ID NO: 10), expressed from pCMV-3Tag-3A vector (MPLLQAETDRRTLQMLRENLEEEAIIMKDV; also: 3Tag vector tags, position not given here)”: the “level of HCV RNA” value in test [4] is “significantly decreased”.

Turning to “GRIM19-D4: GRIM19 protein fragment aa 102-144 (SEQ ID NO: 12), expressed from pCMV-3Tag-3A vector (MDWKVGESVFHTTRWVPPLIGELYGLRTTEEALHASHGFMWYT; also: 3Tag vector tags (pCMV-3Tag-3A))”, the “level of HCV RNA” value in test [4] was “significantly decreased”.

These data come from patent publication US10195166B2, “Methods for treating hepatitis C virus infectious disease” (priority 2013, dated 2019).
